Reference: US10508107B2, “Morpholine derivative” (Hoffmann-La Roche Inc., priority 2016, dated 2019)
Where two headings read alike, the source gives them in different places.

Tests used:
hERG potassium channel = hERG potassium channel (Homo sapiens (Human), UniProt Q12809); assay: hERG whole-cell patch-clamp in stably transfected CHO cells; type: cell-based; conditions: for selectivity ratio: pH 7.4, hERG IC20 / hTAAR1 EC50, read-out: hERG selectivity ratio versus hTAAR1 EC50; for IC50: patch-clamp, CHO cells, 36±1° C.
Sequence of hERG potassium channel (Q12809 whole entry): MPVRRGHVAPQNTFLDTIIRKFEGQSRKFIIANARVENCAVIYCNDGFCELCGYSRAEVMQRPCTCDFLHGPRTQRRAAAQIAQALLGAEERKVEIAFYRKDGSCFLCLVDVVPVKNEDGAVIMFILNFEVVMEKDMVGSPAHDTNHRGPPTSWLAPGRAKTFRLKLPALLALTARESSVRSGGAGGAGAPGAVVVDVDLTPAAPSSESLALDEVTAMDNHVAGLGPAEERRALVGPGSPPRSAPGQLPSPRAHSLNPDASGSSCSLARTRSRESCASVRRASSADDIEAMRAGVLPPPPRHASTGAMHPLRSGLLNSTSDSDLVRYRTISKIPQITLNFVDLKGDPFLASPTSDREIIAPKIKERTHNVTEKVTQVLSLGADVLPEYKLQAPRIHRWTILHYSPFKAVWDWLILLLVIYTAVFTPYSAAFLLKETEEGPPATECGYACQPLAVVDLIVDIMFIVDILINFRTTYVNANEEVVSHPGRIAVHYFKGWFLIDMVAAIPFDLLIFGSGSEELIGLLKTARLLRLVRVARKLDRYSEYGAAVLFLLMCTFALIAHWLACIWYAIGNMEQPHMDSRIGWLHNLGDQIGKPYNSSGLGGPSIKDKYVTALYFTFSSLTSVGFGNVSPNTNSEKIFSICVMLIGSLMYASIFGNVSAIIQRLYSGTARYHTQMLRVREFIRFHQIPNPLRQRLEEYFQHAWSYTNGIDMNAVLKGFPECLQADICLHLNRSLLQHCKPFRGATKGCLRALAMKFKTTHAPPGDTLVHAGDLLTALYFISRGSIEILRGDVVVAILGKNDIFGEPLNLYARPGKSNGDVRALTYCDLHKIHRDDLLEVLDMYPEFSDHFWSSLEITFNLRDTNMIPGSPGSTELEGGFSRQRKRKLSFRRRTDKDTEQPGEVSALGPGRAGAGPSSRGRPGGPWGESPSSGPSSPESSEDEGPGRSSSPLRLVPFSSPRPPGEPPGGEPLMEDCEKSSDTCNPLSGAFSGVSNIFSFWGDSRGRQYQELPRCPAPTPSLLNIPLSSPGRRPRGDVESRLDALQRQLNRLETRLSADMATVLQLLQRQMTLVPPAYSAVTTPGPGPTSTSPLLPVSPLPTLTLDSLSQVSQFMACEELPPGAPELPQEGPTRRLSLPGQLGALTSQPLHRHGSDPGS
Procedure: The whole-cell patch-clamp technique was used to investigate the effects of the test items on hERG (human-ether-a-go-go related gene) potassium channels in stably transfected CHO cells near physiological temperature (36±1° C.). The effects of compounds on hERG K^+-current parameters were evaluated at 4 concentrations (0.3-3-30-300 μM) in at least 3 CHO cells stably expressing the hERG channel. For electrophysiological measurements cells were seeded onto 35 mm sterile culture dishes containing 2 ml culture medium without Hygromycin B. Cells were cultivated at a density that enabled single cells (without visible connections to neighbouring cells) to be measured. Cells were incubated at 37° C. in a humidified atmosphere with 5% CO2 (rel. humidity about 95%). The cells were continuously maintained in and passaged in sterile culture flasks containing nutrient mixture F-12 (DMEM/F-12 with L-Glutamine) supplemented with 10% foetal bovine serum and 10% penicillin/streptomycin solution. […] The 35 mm culture dishes upon which cells were seeded at a density allowing single cells to be recorded were placed on the dish holder of the microscope and continuously perfused (at approximately 1 ml/min) with the bath solution (sodium chloride 150 mM, potassium chloride 4 mM, calcium chloride 1.2 mM, magnesium chloride 1 mM, HEPES 10 mM, pH (NaOH) 7.4) at near physiological temperature (36±1° C.). After formation of a Gigaohm seal between the patch electrodes and individual hERG stably transfected CHO cells (pipette resistance range: 2.0 MΩ-7.0 Mω; seal resistance range: >1 Gω) the cell membrane across the pipette tip was ruptured to assure electrical access to the cell interior (whole-cell patch-configuration). In case the quality of the seal was poor, the process of seal formation was repeated with a different cell and a new pipette. […] This voltage protocol was run at least 10 times at intervals of 10 s. If current density was judged to be too low for measurement, another cell was recorded. […] During wash-in of the test item the voltage protocol indicated above was run continuously again at 10 s intervals until the steady-state level of block was reached. The four test item concentrations of the compound were applied sequentially to 3 cells in a cumulative manner. […] Based on the IC50 value the IC20 was estimated. Each concentration of the test item was analyzed in three experiments (n=3).

human DAT = human DAT (Homo sapiens (Human), UniProt Q01959); assay: Binding to dopamine transporter (DAT) in vitro, [3H]-WIN35,428 SPA; conditions: for DAT selectivity ratio versus hTAAR1 EC50: DAT Ki / hTAAR1 EC50; for Ki: [3H]-WIN35,428 radioligand
Sequence of human DAT (Q01959 whole entry): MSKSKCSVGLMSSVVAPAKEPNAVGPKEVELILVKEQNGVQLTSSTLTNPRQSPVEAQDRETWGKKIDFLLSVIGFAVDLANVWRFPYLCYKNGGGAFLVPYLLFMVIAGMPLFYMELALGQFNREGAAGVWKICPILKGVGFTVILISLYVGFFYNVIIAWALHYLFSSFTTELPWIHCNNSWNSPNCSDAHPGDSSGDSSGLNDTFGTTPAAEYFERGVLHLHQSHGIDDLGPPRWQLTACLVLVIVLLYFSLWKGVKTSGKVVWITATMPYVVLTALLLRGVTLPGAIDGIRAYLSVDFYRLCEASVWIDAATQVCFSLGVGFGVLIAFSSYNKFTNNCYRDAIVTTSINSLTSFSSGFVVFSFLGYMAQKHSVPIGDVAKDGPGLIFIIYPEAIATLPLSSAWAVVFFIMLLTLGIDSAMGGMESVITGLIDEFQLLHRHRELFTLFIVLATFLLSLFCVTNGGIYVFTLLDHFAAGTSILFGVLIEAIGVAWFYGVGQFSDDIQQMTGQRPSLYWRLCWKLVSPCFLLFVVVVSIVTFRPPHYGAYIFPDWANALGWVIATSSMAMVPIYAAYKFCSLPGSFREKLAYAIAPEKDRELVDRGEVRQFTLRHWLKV
Procedure: Binding to dopamine transporter (DAT) in vitro. Human embryonic kidney (HEK) 293 cells (Invitrogen, Zug, Switzerland) stably transfected with human DAT were cultured. The cells were collected and washed three times with phosphate-buffered saline (PBS). The pellets were frozen at −80° C. The pellets were then resuspended in 400 ml of 20 mM HEPES-NaOH, pH 7.4, that contained 10 mM EDTA at 4° C. After homogenization with a Polytron (Kinematica, Lucerne,
Switzerland) at 10000 rotations per minute (rpm) for 15 s, the homogenates were centrifuged at 48000×g for 30 min at 4° C. Aliquots of the membrane stocks were frozen at −80° C. All assays were performed at least three times. The test compounds were diluted in […] of binding buffer (252 mM NaCl, 5.4 mM KCl, 20 mM Na2HPO4, 3.52 mM KH2PO4, pH 7.4) and 10 point dilution curves were made and transferred to 96-well white polystyrene assay plates (Sigma-Aldrich, Buchs, Switzerland). […] Twenty microliters of binding buffer alone in the assay plate defined the total binding, whereas binding in the presence of 10 μM indatraline defined nonspecific binding. Frozen DAT membrane stocks were thawed and resuspended to a concentration of approximately 0.04 mg protein/ml binding buffer (1:1 diluted in H2O) using a polytron tissue homogenizer. The membrane homogenates (40 μg/ml) were then lightly mixed for 5-30 min with polyvinyl toluene […] wheat germ agglutinin-coated scintillation proximity assay (WGASPA; Amersham Biosciences) beads at 7.7 mg beads/ml homogenate. One hundred thirty microliters of the membrane/bead mixture were added to each well of the assay plate that contained radioligand and test compounds (final volume in each well, 200 μl) to start the assay, which was incubated for approximately 2 h at room temperature with agitation. The assay plates were then counted in the PVT SPA counting mode of a Packard Topcount. […] Non-linear regression was used to fit the data to sigmoid curves and determine IC50 values for binding and uptake. Ki values for binding and uptake were calculated using the following Cheng-Prusoff equation: Ki=IC50/(1+[S]/Km).

human TAAR1 = human TAAR1 (Homo sapiens (Human), UniProt Q96RJ0); assay: cAMP functional assay in HEK293 cells expressing human TAAR1; type: cell-based; conditions: for hTAAR1 efficacy*: % agonist activity, β-phenylethylamine = 100% agonism; for EC50: cAMP, HEK293 cells expressing human TAAR1, read-out: hTAAR1 EC50
Sequence of human TAAR1 (Q96RJ0 whole entry): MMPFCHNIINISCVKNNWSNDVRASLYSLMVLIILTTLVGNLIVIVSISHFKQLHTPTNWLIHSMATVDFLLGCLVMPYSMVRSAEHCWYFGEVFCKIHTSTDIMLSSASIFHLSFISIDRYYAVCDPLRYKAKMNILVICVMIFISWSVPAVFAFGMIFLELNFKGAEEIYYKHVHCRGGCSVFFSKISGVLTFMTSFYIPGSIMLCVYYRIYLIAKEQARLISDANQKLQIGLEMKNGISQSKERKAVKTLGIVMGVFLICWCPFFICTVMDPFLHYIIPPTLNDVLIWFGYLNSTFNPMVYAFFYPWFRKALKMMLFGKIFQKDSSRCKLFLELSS
Procedure: For the construction of expression plasmids the coding sequences of human TAAR 1 were amplified from genomic DNA essentially as described by Lindemann et al.[14]. The Expand High Fidelity PCR System (Roche Diagnostics) was used with 1.5 mM Mg^2+ and purified PCR products were cloned into pCR2.1-TOPO cloning vector (Invitrogen) following the instructions of the manufacturer. PCR products were subcloned into the pIRESneo2 vector (BD Clontech, Palo Alto, Calif.), and expression vectors were sequence verified before introduction in cell lines.
HEK293 cells (ATCC # CRL-1573) were cultured essentially as described by Lindemann et al. (2005). For the generation of stably transfected cell lines HEK293 cells were transfected with the pIRESneo2 expression plasmids containing the TAAR coding sequences (described above) with Lipofectamine 2000 (Invitrogen) according to the instructions of the manufacturer, and 24 hrs post transfection the culture medium was supplemented with 1 mg/ml G418 (Sigma, Buchs, Switzerland). After a culture period of about 10 d clones were isolated, expanded and tested for responsiveness to trace amines (all compounds purchased from Sigma) with the cAMP Biotrak Enzyme immunoassay (EIA) System (Amersham) following the non-acetylation EIA procedure provided by the manufacturer.
cAMP measurements were performed as described previously (Revel et al., Proc. Natl. Acad. Sci. USA 2011, 108, 8485-8490). In brief, cells that expressed human TAAR1 were plated on 96-well plates (BIOCOAT 6640; Becton Dickinson, Allschwil, Switzerland) and incubated for 20 h at 37° C. Prior to stimulation of the cells with a broad concentration range of agonists for 30 min at 37° C., the cells were washed with PBS and preincubated with PBS that contained 1 mM 3-isobutyl-1-methylxanthine for 10 min at 37° C. and 5% CO2. Stimulation with 0.2% DMSO was set as the basal level, and the effect of 30 μM β-PEA was set as the maximal response. Subsequently, the cells were lysed, and cAMP assays were performed according to the manufacturer's instructions (cAMP kit; Upstate/Millipore, Schaffhausen, Switzerland). Finally, the plates were read with a luminometer (1420 Multilabel counter; PerkinElmer, Schwerzenbach, Switzerland), and the amount of cAMP was calculated. The results were obtained from at least three independent experiments. Experiments were run in duplicate or triplicate. EC50 values are presented as mean ±standard deviation (in μM).

[1] = estimated based on the IC50 value
[2] = human, CHO cells stably expressing hERG
[3] = human, CHO cells stably expressing hERG, pH 7.4, estimated based on the IC50 value

Row | SMILES | Ratio hERG IC20/hTAAR1 EC50 (hERG potassium channel) | IC20 (hERG potassium channel; [1]) | selectivity ratio (hERG potassium channel; [2]) | IC50 (hERG potassium channel) | Ratio DAT Ki/hTAAR1 EC50 (human DAT) | DAT selectivity ratio versus hTAAR1 EC50 (human DAT) | Ki (human DAT) | hTAAR1 efficacy* (human TAAR1) | EC50 (human TAAR1; listed as example 13) | EC50 (human TAAR1) | IC20 (hERG potassium channel; [3]) | EC50 (human TAAR1; listed as example 14) | EC50 (human TAAR1; listed as example 15) | EC50 (human TAAR1; listed as example 17) | EC50 (human TAAR1; listed as example 18)
1 | O=C(Nc1ccc([C@H]2CNCCO2)cc1)c1cncc(Cl)c1 [Example 13, 5-Chloro-N-[4-[(2S)-morpholin-2-yl]phenyl]pyridine-3-carboxamide] | 23 | 9.14 µM | 23 | 66 µM | 3 | 3 fold | 1.31 µM | 37% | 405 nM | 404 nM | – | – | – | – | –
2 | Cc1cc(C(=O)Nc2ccc([C@H]3CNCCO3)cc2)cc(Cl)n1 [Example 14, 2-Chloro-6-methyl-N-[4-[(2S)-morpholin-2-yl]phenyl]pyridine-4-carboxamide] | 48 | – | – | 73.2 µM | 16 | 16 fold | 7.32 µM | 53% | – | 447 nM | 21.6 µM | 447 nM | – | – | –
3 | O=C(Nc1ccc([C@H]2CNCCO2)cc1)c1coc(-c2ccccc2)n1 [Example 15, N-[4-[(2S)-Morpholin-2-yl]phenyl]-2-phenyl-1,3-oxazole-4-carboxamide] | 4 | 2.4 µM | 4 | 9.65 µM | >39 | – | > 26.1 µM | 35% | – | 663 nM | – | – | 663 nM | – | –
4 | O=C(Nc1ccc([C@H]2CNCCO2)cc1)c1csc(-c2ccccc2)n1 [Example 16, N-[4-[(2S)-Morpholin-2-yl]phenyl]-2-phenyl-1,3-thiazole-4-carboxamide] | 5 | 3.35 µM | 5 | 8.98 µM | 24 | – | 16.2 µM | 35% | – | 666 nM | – | – | – | – | –
5 | Cc1cc(C(=O)Nc2ccc([C@H]3CNCCO3)cc2)ccn1 [Example 17, 2-Methyl-N-[4-[(2S)-morpholin-2-yl]phenyl]pyridine-4-carboxamide] | 193 | – | – | 518 µM | 15 | 15 fold | 10.3 µM | 45% | – | 673 nM | 130 µM | – | – | 673 nM | –
6 | Cc1cc(C(=O)Nc2ccc([C@H]3CNCCO3)cc2)cc(C)n1 [Example 18, 2,6-Dimethyl-N-[4-[(2S)-morpholin-2-yl]phenyl]pyridine-4-carboxamide] | 177 | – | – | 712 µM | >32 | – | > 26.1 µM | 63% | – | 827 nM | 147 µM | – | – | – | 827 nM
7 | Cc1nc(C(=O)Nc2ccc([C@H]3CNCCO3)cc2)cs1 [Example 19, N-[4-[(2S)-Morpholin-2-yl]phenyl]2-methyl-1,3-thiazole-4-carboxamide] | 8 | 8.32 µM | 8 | 60.5 µM | 21 | – | 21.9 µM | 32% | – | 1020 nM | – | – | – | – | –
8 | O=C(Nc1ccc([C@H]2CNCCO2)cc1)c1ccn(-c2ccccc2)n1 [Example 20, N-[4-[(2S)-Morpholin-2-yl]phenyl]-1-phenylpyrazole-3-carboxamide] | 1 | 2.49 µM | 1 | 10.8 µM | >11 | – | > 26.1 µM | 59% | – | 2480 nM | – | – | – | – | –
